# Results as given in patent US20230407243A1, “GENETIC PLATFORM TO INVESTIGATE THE FUNCTIONS OF BACTERIAL DRUG EFFLUX PUMPS” (priority 2022, published 2023).
# Where two headings read alike, the source gives them in different places.
# What was measured:
# Type in all cases: cell-based, Escherichia coli
# [1] = system: E. coli ΔtolC; test: microbe, parasite or virus in culture; conditions: for Minimum inhibitory concentration (MIC), ΔtolC: Table 10, without pore; for MIC: Escherichia coli, 18 h, read-out: Minimum Inhibitory Concentration, ΔtolC
# How it was run: (§1)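 Broth MIC in cation-adjusted Mueller-Hinton (MHB II) following twofold compound titration in duplicate. Bacteria were prepared at OD600 ~1.0 in PBS and diluted 1/2000. Endpoint OD600 after 18 h at 37 °C was corrected using the pre-incubation reading.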
# [2] = system: E. coli EKO-35; test: microbe, parasite or virus in culture; conditions: for Fold change of MICs: EKO-35 compared to EKO-35 (reference); for MIC: Escherichia coli
# How it was run: as §1
# [3] = system: wild-type E. coli K-12 str. BW25113; test: microbe, parasite or virus in culture; conditions: for MIC: Escherichia coli
# How it was run: as §1
# [4] = system: EKO-35 araC::mdtEF Pore; test: MIC susceptibility profiling, porinated efflux platform; conditions: for Fold changes of MICs: EKO-35 araC::mdtEF Pore compared to EKO-35-Pore
# How it was run: (§2)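 Strains carry the fhuA ΔC/Δ4L pore integrated between glmS and pstS under a constitutive promoter, with pore activity checked by vancomycin susceptibility. Overnight LB cultures were adjusted in PBS pH 7.4 to OD600 ~1.0 and diluted 1/2000 into MHB II. 2-fold compound titrations were read by OD600 after 18 h at 37 °C.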
# [5] = system: EKO-35 araC::acrEF Pore; test: as above; conditions: for Fold changes of MICs: EKO-35 araC::acrEF Pore compared to EKO-35-Pore
# How it was run: as §2
# [6] = system: EKO-35 araC::emrKY Pore; test: as above; conditions: for Fold changes of MICs: EKO-35 araC::emrKY Pore compared to EKO-35-Pore
# How it was run: as §2
# [7] = system: EKO-35 araC::macAB Pore; test: as above; conditions: for Fold changes of MICs: EKO-35 araC::macAB Pore compared to EKO-35-Pore
# How it was run: as §2
# [8] = system: ΔtolC-Pore; test: microbe, parasite or virus in culture; conditions: for Minimum inhibitory concentration (MIC), Pore ΔtolC: Table 10, with pore; for MIC: Escherichia coli, 18 h, read-out: Minimum inhibitory concentration, ΔtolC-Pore
# How it was run: as §2
# [9] = system: wild-type (WT) K-12-Pore; test: microbe, parasite or virus in culture; conditions: for MIC: Escherichia coli
# How it was run: as §2
# [10] = system: EKO-35 araC::mdtEF; test: MIC susceptibility profiling, efflux platform; conditions: for Fold change of MICs: EKO-35 araC::mdtEF compared to EKO-35
# How it was run: as §1
# [11] = system: EKO-35 araC::acrBD408A; test: MIC susceptibility profiling, efflux platform; conditions: for Fold change of MICs: EKO-35 araC::acrBD408A compared to EKO-35
# How it was run: as §1
# [12] = system: EKO-35 araC::mdtBC; test: MIC susceptibility profiling, efflux platform; conditions: for Fold change of MICs: EKO-35 araC::mdtBC compared to EKO-35
# How it was run: as §1
# [13] = system: EKO-35 araC::acrD; test: MIC susceptibility profiling, efflux platform; conditions: for Fold change of MICs: EKO-35 araC::acrD compared to EKO-35
# How it was run: as §1
# [14] = system: EKO-35 araC::macAB; test: MIC susceptibility profiling, efflux platform; conditions: for Fold change of MICs: EKO-35 araC::macAB compared to EKO-35
# How it was run: as §1
# [15] = system: EKO-35 araC::emrKY; test: MIC susceptibility profiling, efflux platform; conditions: for Fold change of MICs: EKO-35 araC::emrKY compared to EKO-35
# How it was run: as §1
# [16] = system: EKO-35 araC::acrB; test: MIC susceptibility profiling, efflux platform; conditions: for Fold change of MICs: EKO-35 araC::acrB compared to EKO-35; for MIC: Escherichia coli, read-out: Minimum Inhibitory Concentration, EKO-35 araC::acrB
# How it was run: as §1
# [17] = system: EKO-35 araC::mexCD (MexCD from P. aeruginosa); test: MIC susceptibility profiling, efflux platform; conditions: for Fold change of MICs: EKO-35 araC::mexCD compared to EKO-35; for MIC: read-out: Minimum Inhibitory Concentration, EKO-35 araC::mexCD
# How it was run: as §1
# [18] = system: EKO-35 araC::acrEF; test: MIC susceptibility profiling, efflux platform; conditions: for Fold change of MICs: EKO-35 araC::acrEF compared to EKO-35; for MIC: Escherichia coli, read-out: Minimum Inhibitory Concentration, EKO-35 araC::acrEF
# How it was run: as §1
# [19] = system: EKO-35 araC::emrAB; test: MIC susceptibility profiling, efflux platform; conditions: for Fold change of MICs: EKO-35 araC::emrAB compared to EKO-35
# How it was run: as §1
# [20] = Table 13A, non-porinated, technical duplicate
# [21] = Table 10, without pore, technical duplicate
# [22] = Table 14A, porinated, technical duplicate
# [23] = Table 13B, non-porinated, technical duplicate
smiles,measurement,setting,value
Nc1ccccc1SCc1nc(-c2ccc(Cl)cc2)no1 [compound 16],"Minimum inhibitory concentration (MIC), ΔtolC",[1]; technical duplicate,10 µg/mL
same,"Minimum Inhibitory Concentration, ΔtolC",[1]; [20],10 µg/mL
same,Fold change of MICs,[2],1 fold
same,"Minimum inhibitory concentration (MIC), EKO-35",[2]; [21],10 µg/mL
same,"Minimum Inhibitory Concentration, EKO-35",[2]; [20],10 µg/mL
same,susceptibility of EKO-35 to the compound,[2]; synthetic efflux substrates of FIG. 12,susceptible
same,"Minimum inhibitory concentration (MIC), K-12",[3]; [21],320 µg/mL
same,"Minimum Inhibitory Concentration, K-12",[3]; [20],320 µg/mL
same,Fold changes of MICs,[4],16 fold
same,"Minimum inhibitory concentration, EKO-35 araC::mdtEF Pore",[4]; [22],80 µg/mL
same,Fold changes of MICs,[5],16 fold
same,"Minimum inhibitory concentration, EKO-35 araC::acrEF Pore",[5]; [22],80 µg/mL
same,Fold changes of MICs,[6],1 fold
same,Minimum inhibitory concentration,"[6]; EKO-35 araC::emrKY Pore, technical duplicate",2.5 µg/mL
same,Fold changes of MICs,[7],1 fold
same,Minimum inhibitory concentration,"[7]; EKO-35 araC::macAB Pore, technical duplicate",5 µg/mL
same,"Minimum inhibitory concentration (MIC), Pore ΔtolC",[8]; technical duplicate,5 µg/mL
same,"Minimum inhibitory concentration, ΔtolC-Pore",[8]; [22],5 µg/mL
same,"Minimum inhibitory concentration (MIC), Pore K-12","[9]; Table 10, with pore, technical duplicate",160 µg/mL
same,"Minimum inhibitory concentration, K-12 (WT)-Pore",[9]; [22],160 µg/mL
same,Fold change of MICs,[10],16 fold
same,"Minimum Inhibitory Concentration, EKO-35 araC::mdtEF",[10]; [20],160 µg/mL
same,Fold change of MICs,[11],1 fold
same,"Minimum Inhibitory Concentration, EKO-35 araC::acrBD408A",[11]; [23],10 µg/mL
same,Fold change of MICs,[12],1 fold
same,"Minimum Inhibitory Concentration, EKO-35 araC::mdtBC",[12]; [23],5 µg/mL
same,Fold change of MICs,[13],1 fold
same,"Minimum Inhibitory Concentration, EKO-35 araC::acrD",[13]; [20],10 µg/mL
same,Fold change of MICs,[14],1 fold
same,"Minimum Inhibitory Concentration, EKO-35 araC::macAB",[14]; [23],10 µg/mL
same,Fold change of MICs,[15],1 fold
same,"Minimum Inhibitory Concentration, EKO-35 araC::emrKY",[15]; [23],5 µg/mL
same,Fold change of MICs,[16],32 fold
same,"Minimum Inhibitory Concentration, EKO-35 araC::acrB",[16]; [20],320 µg/mL
same,Fold change of MICs,[17],16 fold
same,"Minimum Inhibitory Concentration, EKO-35 araC::mexCD",[17]; [23],160 µg/mL
same,Fold change of MICs,[18],32 fold
same,"Minimum Inhibitory Concentration, EKO-35 araC::acrEF",[18]; [20],320 µg/mL
same,Fold change of MICs,[19],16 fold
same,"Minimum Inhibitory Concentration, EKO-35 araC::emrAB",[19]; [23],160 µg/mL
COc1cc(Cc2cnc(N)nc2N)cc(OC)c1OC [trimethoprim],MIC,[1],0.098 µg/mL
same,"Minimum inhibitory concentration (MIC), ΔtolC",[1]; technical duplicate,0.098 µg/mL
same,Fold change of MICs,[2],1 fold
same,MIC,"[2]; EKO35, read-out: Minimum Inhibitory Concentration, EKO-35",0.195 µg/mL
same,MIC,"[2]; EKO35, read-out: Minimum inhibitory concentration (MIC), EKO-35",0.195 µg/mL
same,MIC,"[3]; BW25113, read-out: Minimum Inhibitory Concentration, K-12",0.391 µg/mL
same,MIC,"[3]; BW25113, read-out: Minimum inhibitory concentration (MIC), K-12",0.391 µg/mL
same,Fold changes of MICs,[4],2 fold
same,efflux pump-mediated resistance vs EKO-35-Pore,[5]; AcrEF with the pore,impacted the ability of AcrEF to confer resistance
same,Fold changes of MICs,[5],1 fold
same,Fold changes of MICs,[6],2 fold
same,Fold changes of MICs,[7],1 fold
same,MIC,[8],0.049 µg/mL
same,"Minimum inhibitory concentration (MIC), Pore ΔtolC",[8]; technical duplicate,0.049 µg/mL
same,MIC,"[9]; read-out: Minimum inhibitory concentration (MIC), Pore K-12",0.391 µg/mL
same,MIC,"[9]; read-out: Minimum inhibitory concentration, K-12 (WT)-Pore",0.391 µg/mL
same,Fold change of MICs,[10],2 fold
same,Fold change of MICs,[11],0 fold
same,MIC,"[11]; Escherichia coli, Table 13B, non-porinated, technical duplicate, read-out: Minimum Inhibitory Concentration, EKO-35 araC::acrBD408A",0.098 µg/mL
same,Fold change of MICs,[12],1 fold
same,Fold change of MICs,[13],2 fold
same,Fold change of MICs,[14],1 fold
same,Fold change of MICs,[15],1 fold
same,Fold change of MICs,[16],8 fold
same,MIC,[16]; [20],1.56 µg/mL
same,Fold change of MICs,[17],2 fold
same,MIC,[17]; [23],0.391 µg/mL
same,Fold change of MICs,[18],4 fold
same,MIC,[18]; [20],0.781 µg/mL
same,Fold change of MICs,[19],1 fold
C[C@@H]1O[C@@H]1P(=O)(O)O [fosfomycin],MIC,[1],6.25 µg/mL
same,"Minimum inhibitory concentration (MIC), ΔtolC",[1]; technical duplicate,6.25 µg/mL
same,Fold change of MICs,[2],1 fold
same,MIC,"[2]; EKO35, Table 10, without pore, technical duplicate, read-out: Minimum inhibitory concentration (MIC), EKO-35",3.12 µg/mL
same,MIC,"[2]; EKO35, Table 13A, non-porinated, technical duplicate, read-out: Minimum Inhibitory Concentration, EKO-35",3.12 µg/mL
same,MIC,"[3]; BW25113, Table 10, without pore, technical duplicate, read-out: Minimum inhibitory concentration (MIC), K-12",6.25 µg/mL
same,MIC,"[3]; BW25113, Table 13A, non-porinated, technical duplicate, read-out: Minimum Inhibitory Concentration, K-12",6.25 µg/mL
same,Fold changes of MICs,[4],1 fold
same,MIC,"[4]; Escherichia coli, Table 14A, porinated, technical duplicate, read-out: Minimum inhibitory concentration, EKO-35 araC::mdtEF Pore",0.781 µg/mL
same,Fold changes of MICs,[5],2 fold
same,MIC,"[5]; Escherichia coli, Table 14A, porinated, technical duplicate, read-out: Minimum inhibitory concentration, EKO-35 araC::acrEF Pore",1.56 µg/mL
same,Fold changes of MICs,[6],1 fold
same,MIC,"[6]; Escherichia coli, EKO-35 araC::emrKY Pore, technical duplicate, read-out: Minimum inhibitory concentration",0.781 µg/mL
same,Fold changes of MICs,[7],1 fold
same,MIC,"[7]; Escherichia coli, EKO-35 araC::macAB Pore, technical duplicate, read-out: Minimum inhibitory concentration",0.781 µg/mL
same,MIC,[8],3.12 µg/mL
same,"Minimum inhibitory concentration (MIC), Pore ΔtolC",[8]; technical duplicate,3.125 µg/mL
same,MIC,"[9]; Table 10, with pore, technical duplicate, read-out: Minimum inhibitory concentration (MIC), Pore K-12",3.12 µg/mL
same,MIC,"[9]; Table 14A, porinated, technical duplicate, read-out: Minimum inhibitory concentration, K-12 (WT)-Pore",3.12 µg/mL
same,MIC,"[10]; Escherichia coli, Table 13A, non-porinated, technical duplicate, read-out: Minimum Inhibitory Concentration, EKO-35 araC::mdtEF",1.56 µg/mL
same,Fold change of MICs,[11],1 fold
same,Fold change of MICs,[12],1 fold
same,MIC,"[12]; Escherichia coli, Table 13B, non-porinated, technical duplicate, read-out: Minimum Inhibitory Concentration, EKO-35 araC::mdtBC",1.56 µg/mL
same,Fold change of MICs,[13],1 fold
same,MIC,"[13]; Escherichia coli, Table 13A, non-porinated, technical duplicate, read-out: Minimum Inhibitory Concentration, EKO-35 araC::acrD",1.56 µg/mL
same,Fold change of MICs,[14],1 fold
same,Fold change of MICs,[15],1 fold
same,MIC,"[15]; Escherichia coli, Table 13B, non-porinated, technical duplicate, read-out: Minimum Inhibitory Concentration, EKO-35 araC::emrKY",1.56 µg/mL
same,Fold change of MICs,[16],1 fold
same,MIC,[16]; [20],1.56 µg/mL
same,Fold change of MICs,[17],1 fold
same,MIC,[17]; [23],1.56 µg/mL
same,MIC,[18]; [20],1.56 µg/mL
same,Fold change of MICs,[19],1 fold
